Results: ChEMBL document CHEMBL1145646, “New anti-inflammatory ergostane-type ecdysteroids from the sclerotium of Polyporus umbellatus” (2008)

Test system: Mus musculus
Test: Inhibition of TPA-induced inflammation in mouse assessed per ear by edema assay
Assay type: functional

CC(C)C(C)/C=C/[C@@H](C)[C@H]1CC[C@H]2C3=C[C@@H](O)[C@@]4(O)C[C@@H](O)CC[C@]4(C)[C@H]3CC[C@]12C (some centres undefined)
ID50: 0.666 µmol/ear

C=C(C[C@@H](O)[C@@H](C)[C@H]1CC[C@@]2(O)C3=CC(=O)[C@@H]4C[C@@H](O)[C@@H](O)C[C@]4(C)[C@H]3CC[C@]12C)C(C)C [POLYPORUSTERONE G]
ID50: 0.207 µmol/ear

C=C(C[C@@H](O)[C@](C)(O)[C@H]1CC[C@@]2(O)C3=CC(=O)[C@@H]4C[C@@H](O)[C@@H](O)C[C@]4(C)[C@H]3CC[C@]12C)C(C)C [POLYPORUSTERONE B]
ID50: 0.117 µmol/ear

COc1ccc2c(c1)c(CC(=O)O)c(C)n2C(=O)c1ccc(Cl)cc1 [INDOMETHACIN]
ID50: 0.838 µmol/ear

CC(C)C(C)[C@H](O)[C@@H]1O[C@H]2C[C@@]3(O)C4=CC(=O)[C@@H]5C[C@@H](O)[C@@H](O)C[C@]5(C)[C@H]4CC[C@]3(C)[C@H]2[C@@]1(C)O (some centres undefined) [POLYPOROID A]
ID50: 0.531 µmol/ear

C[C@@H]1[C@H]([C@@H](O)[C@](C)(O)[C@H]2CC[C@@]3(O)C4=CC(=O)[C@@H]5C[C@@H](O)[C@@H](O)C[C@]5(C)[C@H]4CC[C@]23C)OC[C@H]1C [POLYPOROID B]
ID50: 0.682 µmol/ear

CC(C)C(C)C1O[C@H]1[C@](C)(O)[C@H]1CC[C@@]2(O)C3=CC(=O)[C@@H]4C[C@@H](O)[C@@H](O)C[C@]4(C)[C@H]3CC[C@]12C (some centres undefined) [POLYPORUSTERONE C]
ID50: 0.289 µmol/ear

CC(C)C(C)C[C@@H](O)[C@](C)(O)[C@H]1CC[C@@]2(O)C3=CC(=O)[C@@H]4C[C@@H](O)[C@@H](O)C[C@]4(C)[C@H]3CC[C@]12C (some centres undefined) [POLYPORUSTERONE A]
ID50: 0.141 µmol/ear

CC(C)C(C)C[C@@H](O)[C@](C)(O)[C@H]1[C@@H](O)C[C@@]2(O)C3=CC(=O)[C@@H]4C[C@@H](O)[C@@H](O)C[C@]4(C)[C@H]3CC[C@]12C (some centres undefined) [POLYPOROID C]
ID50: 0.184 µmol/ear
